In ChEMBL document CHEMBL1201862, “PubChem BioAssay data set” (2004):
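Briefly, cells in 96-well plates were exposed to five compound concentrations for 48 h, and endpoints were estimated by linear interpolation. Abbreviation: GI50, concentration required for 50% inhibition of growth.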 The source made the active and inactive calls. Cut-off read from the data, not from the text of the source: active = GI50 up to about 1.1 µM and inactive = higher.

Legend:
Test in all cases: NCI-60 cell line screen, 48 h
DLD-1 = tested on: DLD-1
KM-20L2 = tested on: KM-20L2
XF498 = tested on: XF498
DMS-114 = tested on: DMS-114
RXF 631 = tested on: RXF 631
DMS-273 = tested on: DMS-273
SNB-78 = tested on: SNB-78
HOP-18 = tested on: HOP-18

Measured: GI50

CC1=C(C(=O)Nc2ccc([N+](=O)[O-])cc2)C(c2ccccc2F)C(C(=O)Nc2ccc([N+](=O)[O-])cc2)=C(C)N1
inactive: DLD-1 8.45 µM | KM-20L2 12.3 µM | XF498 1.48 µM | DMS-114 5.07 µM | RXF 631 21.3 µM

O=C1OC(=O)c2c1c(-c1ccccc1)nc1ccccc21
inactive: DLD-1 > 100 µM | DMS-273 > 100 µM | KM-20L2 > 100 µM | XF498 > 100 µM | DMS-114 > 100 µM | SNB-78 > 100 µM | RXF 631 > 100 µM

O=C(c1ccccc1)n1cc(/C=C/[N+](=O)[O-])c2ccccc21
inactive: DLD-1 18.4 µM | DMS-273 25.1 µM | XF498 29.8 µM | DMS-114 21.8 µM | SNB-78 30.9 µM | RXF 631 17.3 µM | HOP-18 > 100 µM

COc1ccc(COC2CC(OC)OC(C)C2OC(=O)c2ccccc2)cc1 (stereo not drawn)
inactive: DLD-1 18.7 µM | DMS-273 39.4 µM | KM-20L2 14.7 µM | XF498 21.7 µM | DMS-114 26 µM | SNB-78 41.7 µM | RXF 631 30.7 µM | HOP-18 > 100 µM

N#C/N=C(/N)NCN/C(N)=N\C#N
inactive: DLD-1 81.5 µM | DMS-273 58.9 µM | KM-20L2 > 100 µM | DMS-114 > 100 µM | SNB-78 > 100 µM | RXF 631 > 100 µM | HOP-18 > 100 µM

CCC12CCCN(Cc3ccccc3)C1c1c(n(C)c3ccccc13)[C@H](C(=O)OC)C2 (stereo partly drawn)
inactive: DLD-1 > 239 µM | DMS-273 > 239 µM | KM-20L2 120 µM | XF498 201 µM | DMS-114 226 µM | RXF 631 > 239 µM

CCC1CN2CCc3cc(OC)c(OC)cc3C2CC1CC1c2cc(OC)c(OC)cc2CCN1C(=O)CNC(=O)OC(C)(C)C (stereo not drawn)
inactive: DLD-1 4.67 µM | DMS-273 12 µM | KM-20L2 5.08 µM | XF498 7.53 µM | DMS-114 3.8 µM | SNB-78 20.5 µM | RXF 631 30.3 µM | HOP-18 23.3 µM
